The experiment has as its system T1, IspH.
T1 construct: complete ORF in pET-28a(+) NcoI/XhoI, C-terminal His-tag, E. coli BL21(DE3) with isc operon, [4Fe-4S] cluster, Ni-NTA purified anaerobically
The experiment is described as follows: headspace GC of isoamylene (2-methyl-2-butene and 3-methyl-1-butene) formation; Michaelis-Menten and Lineweaver-Burk. It counts as biochemical, Bacillus sp. N16-5. The settings on record: 1 mM NADPH, 20 µM Fd, 5 µM FNR, 2 mM DTT, 20 mM Tris-HCl pH 7.8, 150 mM NaCl, 37 °C, anaerobic; DMAPP 0.1 to 1 mM.

`CC(C)=CCOP(=O)(O)OP(=O)(O)O` [DMAPP]: the Km (commonly the substrate concentration at which the rate is half of its maximum) is ~275 µM.

Values taken from article PMC4864966, “Two unexpected promiscuous activities of the iron–sulfur protein IspH in production of isoprene and isoamylene” (Microbial Cell Factories, 2016).
